Measured values published in ChEMBL document CHEMBL1201862, “PubChem BioAssay data set” (2004).
The source made the active and inactive calls.

Tests used:
[1] = target: 26S proteasome non-ATPase regulatory subunit 14 (Homo sapiens, UniProt O00487); test: inhibition of proteasome subunit RPN11 – biochemical, fluorescence polarization, uHTS hits, confirmation (AID 602368); type: functional
Major prion protein = Major prion protein (Homo sapiens, UniProt P04156); type: functional, cell-based
[2] = target: 72 kDa type IV collagenase (Homo sapiens, UniProt P08253); test: Dose Response validation of uHTS RPN11 inhibitor hits using a MMP-2 Fluorescence assay.; type: functional
Prothrombin = Prothrombin (Bos taurus, UniProt P00735); test: thrombin inhibition, dose response, biochemical, fluorescence polarization, uHTS hits (AID 602369); type: functional
Beta Lactamase = Beta Lactamase (Pseudomonas aeruginosa, UniProt Q932Y6); test: beta-lactamase reporter inhibitor potency, dose response, artefact control for TLR9-MyD88 binding inhibitor project, BLA reporter cells, FRET fluorescence (AID 588341); type: cell-based;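 further: cell based assay in CHO-K1 cells stably expressing beta-lactamase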
CHO = test: cytotoxicity in TLR9-MyD88 CHO cells, dose response, cytotoxicity control for TLR9-MyD88 binding inhibitor project, cell-based, luminescence (AID 588339); type: functional, hamster; settings: Cricetulus griseus;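 further: CHO cells stably coexpressing TLR9 and MyD88 fusions from primary screen; compound exposure lasted 48 hours before viability readout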
H9c2 = test: cells; type: functional, cell-based; settings: Rattus norvegicus, H9c2, Myocardium
[3] = target: T1, Rac GTPase-activating protein 1 (Homo sapiens, UniProt Q9H0H5); test: MgcRacGAP GTPase-activating activity inhibitors, confirmation, biochemical, ADP Hunter fluorescence, primary and confirmatory (AID 624330); type: functional
T1 sequence (Q9H0H5 whole entry): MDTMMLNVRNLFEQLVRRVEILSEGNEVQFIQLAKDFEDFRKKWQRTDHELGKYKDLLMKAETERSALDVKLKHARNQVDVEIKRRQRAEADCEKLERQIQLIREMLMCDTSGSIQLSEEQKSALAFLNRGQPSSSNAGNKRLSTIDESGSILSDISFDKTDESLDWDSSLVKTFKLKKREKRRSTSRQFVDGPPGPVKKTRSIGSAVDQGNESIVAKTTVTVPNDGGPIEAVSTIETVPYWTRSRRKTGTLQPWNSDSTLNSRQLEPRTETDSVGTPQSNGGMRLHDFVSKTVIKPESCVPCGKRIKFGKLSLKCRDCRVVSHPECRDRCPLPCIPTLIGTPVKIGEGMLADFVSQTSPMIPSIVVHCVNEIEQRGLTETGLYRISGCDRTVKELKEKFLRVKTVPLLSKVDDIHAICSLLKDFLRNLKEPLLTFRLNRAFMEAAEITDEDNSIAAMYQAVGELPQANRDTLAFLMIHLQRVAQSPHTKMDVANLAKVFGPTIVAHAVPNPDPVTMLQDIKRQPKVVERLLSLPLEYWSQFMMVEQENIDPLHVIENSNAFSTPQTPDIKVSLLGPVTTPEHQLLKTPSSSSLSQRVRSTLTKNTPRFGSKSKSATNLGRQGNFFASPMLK

[4] = target: Apoptotic protease-activating factor 1 (Homo sapiens, UniProt O14727); type: functional
Caspase-3 = target: T2, Caspase-3 (Homo sapiens, UniProt P42574); test: SAR Analysis of small molecule inhibitors of Sentrin-specific proteases (SENPs) using a Caspase-3 Selectivity assay. [Related pubchem assays (depositor defined):AID2540, AID2599, AID434973, AID489001]; type: functional
T2 sequence (P42574 whole entry): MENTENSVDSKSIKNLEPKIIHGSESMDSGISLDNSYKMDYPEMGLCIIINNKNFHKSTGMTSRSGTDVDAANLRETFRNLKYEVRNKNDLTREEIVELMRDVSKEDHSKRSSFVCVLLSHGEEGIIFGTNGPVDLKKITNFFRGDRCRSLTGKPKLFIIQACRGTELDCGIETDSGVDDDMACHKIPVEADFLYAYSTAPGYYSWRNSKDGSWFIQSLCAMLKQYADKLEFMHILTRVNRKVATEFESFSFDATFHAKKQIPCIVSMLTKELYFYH

[5] = target: T3, Sentrin-specific protease 8 (Homo sapiens, UniProt Q96LD8); test: SENP8 protease inhibitors, SAR follow-up, biochemical, luminescence (AID 504501); type: functional
T3 sequence (Q96LD8 whole entry): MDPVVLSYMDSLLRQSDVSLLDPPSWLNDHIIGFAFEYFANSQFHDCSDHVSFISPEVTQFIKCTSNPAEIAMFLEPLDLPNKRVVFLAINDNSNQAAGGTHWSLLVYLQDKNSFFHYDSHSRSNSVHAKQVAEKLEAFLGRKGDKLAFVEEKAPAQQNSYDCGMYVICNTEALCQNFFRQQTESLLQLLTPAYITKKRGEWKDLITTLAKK

[6] = target: T4, Sentrin-specific protease 7 (Homo sapiens, UniProt Q9BQF6); test: SENP7 protease inhibitors, SAR follow-up, biochemical, luminescence (AID 504497); type: functional
T4 sequence (Q9BQF6 whole entry): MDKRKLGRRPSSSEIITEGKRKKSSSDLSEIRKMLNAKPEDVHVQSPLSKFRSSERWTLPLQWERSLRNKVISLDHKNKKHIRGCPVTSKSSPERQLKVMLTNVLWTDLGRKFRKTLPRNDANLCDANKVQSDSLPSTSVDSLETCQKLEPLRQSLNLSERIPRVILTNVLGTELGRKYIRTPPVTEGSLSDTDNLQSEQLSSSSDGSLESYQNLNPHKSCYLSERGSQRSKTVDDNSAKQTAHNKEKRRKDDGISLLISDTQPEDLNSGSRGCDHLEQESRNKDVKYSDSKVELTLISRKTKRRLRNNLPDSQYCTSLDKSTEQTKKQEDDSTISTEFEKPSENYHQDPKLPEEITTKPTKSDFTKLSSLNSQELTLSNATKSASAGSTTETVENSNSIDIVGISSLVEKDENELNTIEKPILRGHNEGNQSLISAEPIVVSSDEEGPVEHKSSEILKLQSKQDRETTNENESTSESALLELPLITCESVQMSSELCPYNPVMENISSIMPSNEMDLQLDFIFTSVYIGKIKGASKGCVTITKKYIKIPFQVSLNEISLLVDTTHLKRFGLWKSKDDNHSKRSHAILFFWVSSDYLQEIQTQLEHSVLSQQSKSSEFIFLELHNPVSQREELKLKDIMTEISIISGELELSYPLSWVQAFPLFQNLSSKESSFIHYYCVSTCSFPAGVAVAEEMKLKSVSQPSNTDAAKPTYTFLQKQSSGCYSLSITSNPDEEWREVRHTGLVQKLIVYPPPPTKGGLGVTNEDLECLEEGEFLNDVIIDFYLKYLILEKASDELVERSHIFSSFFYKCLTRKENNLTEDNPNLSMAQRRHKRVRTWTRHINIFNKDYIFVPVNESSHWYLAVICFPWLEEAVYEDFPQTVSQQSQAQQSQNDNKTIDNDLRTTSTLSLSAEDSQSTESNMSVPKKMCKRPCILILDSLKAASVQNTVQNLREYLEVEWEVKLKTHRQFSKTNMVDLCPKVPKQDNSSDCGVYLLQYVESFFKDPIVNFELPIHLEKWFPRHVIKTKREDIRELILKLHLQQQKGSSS

[7] = target: T5, Sentrin-specific protease 6 (Homo sapiens, UniProt Q9GZR1); test: SAR Analysis of small molecule inhibitors of Sentrin-specific protease 6 (SENP6) using a Luminescent assay. [Related pubchem assays (depositor defined):AID2582, AID2599]; type: functional
T5 sequence (Q9GZR1 whole entry): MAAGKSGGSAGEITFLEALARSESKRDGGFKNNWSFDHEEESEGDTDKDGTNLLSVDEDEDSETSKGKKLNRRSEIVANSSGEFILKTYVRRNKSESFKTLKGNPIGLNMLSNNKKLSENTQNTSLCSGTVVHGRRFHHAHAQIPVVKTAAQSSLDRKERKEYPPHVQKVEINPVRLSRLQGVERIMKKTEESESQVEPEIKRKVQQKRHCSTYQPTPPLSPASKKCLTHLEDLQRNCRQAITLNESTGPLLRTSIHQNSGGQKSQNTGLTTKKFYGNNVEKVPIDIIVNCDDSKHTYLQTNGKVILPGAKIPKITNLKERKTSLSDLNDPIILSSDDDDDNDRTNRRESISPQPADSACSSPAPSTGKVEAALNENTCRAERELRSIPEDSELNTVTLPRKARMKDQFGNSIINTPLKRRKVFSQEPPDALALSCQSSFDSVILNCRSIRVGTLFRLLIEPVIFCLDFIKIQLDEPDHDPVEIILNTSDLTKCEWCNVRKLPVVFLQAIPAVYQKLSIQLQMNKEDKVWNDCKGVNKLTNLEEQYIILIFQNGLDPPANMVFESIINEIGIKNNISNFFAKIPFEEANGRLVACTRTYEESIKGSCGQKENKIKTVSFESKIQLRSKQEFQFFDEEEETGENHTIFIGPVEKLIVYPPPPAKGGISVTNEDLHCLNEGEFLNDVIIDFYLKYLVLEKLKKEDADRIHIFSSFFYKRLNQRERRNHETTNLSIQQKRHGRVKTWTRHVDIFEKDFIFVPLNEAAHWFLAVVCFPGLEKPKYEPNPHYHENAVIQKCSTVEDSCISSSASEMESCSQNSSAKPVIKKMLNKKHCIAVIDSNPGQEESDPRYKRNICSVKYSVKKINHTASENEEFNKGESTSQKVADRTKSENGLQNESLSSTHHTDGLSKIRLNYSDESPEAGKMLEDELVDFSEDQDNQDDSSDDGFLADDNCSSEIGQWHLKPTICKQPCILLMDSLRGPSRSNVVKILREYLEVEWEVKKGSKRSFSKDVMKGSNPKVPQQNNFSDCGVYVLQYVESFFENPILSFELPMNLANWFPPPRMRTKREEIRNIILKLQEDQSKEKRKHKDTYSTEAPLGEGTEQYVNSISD

Candida albicans [8] = test: growth inhibition of azole-resistant C. albicans, dose response, CaCi-8 strain, Alamar Blue, dry powder, set 3 (AID 488905); type: functional, organism-based
Candida albicans [9] = test: reversal of fluconazole resistance in C. albicans, dose response, CaCi-2 strain, Alamar Blue, dry powder, set 3 (AID 488907); type: functional, organism-based
[10] = target: DNA dC->dU-editing enzyme APOBEC-3G (Homo sapiens, UniProt Q9HC16); test: APOBEC3G deaminase inhibitors, SAR follow-up, biochemical, fluorescence, single-stranded DNA substrate (AID 602136); type: functional; settings: read-out: IC50_Mean
[11] = target: DNA dC->dU-editing enzyme APOBEC-3A (Homo sapiens, UniProt P31941); test: SAR analysis of small molecule inhibitors of APOBEC3A DNA Deaminase via a fluorescence-based single-stranded DNA deaminase assay.; type: functional; settings: read-out: IC50_Mean
Aurora kinase B = Aurora kinase B (Homo sapiens, UniProt Q96GD4); type: functional
[12] = target: Vascular endothelial growth factor receptor 2 (Homo sapiens, UniProt P35968); type: functional
Aurora kinase A = Aurora kinase A (Homo sapiens, UniProt O14965); type: functional;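 further: value from the Navigating the Kinome kinase panel profiling, panel entry STK6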
HEK293 = test: inhibitors of LMP1-driven NF-kB reporter, dose response, cell-based, HEK293, luciferase, cherry-pick (AID 588343); type: functional; settings: Homo sapiens
[13] = target: T6, Short transient receptor potential channel 4 (Mus musculus, UniProt Q9QUQ5); test: mouse TRPC4 channel inhibitors, dose response, cell-based, HEK293 TRPC4/mu-opioid, Fluo-4 calcium (AID 434942); type: functional;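 further: potency of inhibitors blocking the TRPC4 calcium response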
T6 sequence (Q9QUQ5 whole entry): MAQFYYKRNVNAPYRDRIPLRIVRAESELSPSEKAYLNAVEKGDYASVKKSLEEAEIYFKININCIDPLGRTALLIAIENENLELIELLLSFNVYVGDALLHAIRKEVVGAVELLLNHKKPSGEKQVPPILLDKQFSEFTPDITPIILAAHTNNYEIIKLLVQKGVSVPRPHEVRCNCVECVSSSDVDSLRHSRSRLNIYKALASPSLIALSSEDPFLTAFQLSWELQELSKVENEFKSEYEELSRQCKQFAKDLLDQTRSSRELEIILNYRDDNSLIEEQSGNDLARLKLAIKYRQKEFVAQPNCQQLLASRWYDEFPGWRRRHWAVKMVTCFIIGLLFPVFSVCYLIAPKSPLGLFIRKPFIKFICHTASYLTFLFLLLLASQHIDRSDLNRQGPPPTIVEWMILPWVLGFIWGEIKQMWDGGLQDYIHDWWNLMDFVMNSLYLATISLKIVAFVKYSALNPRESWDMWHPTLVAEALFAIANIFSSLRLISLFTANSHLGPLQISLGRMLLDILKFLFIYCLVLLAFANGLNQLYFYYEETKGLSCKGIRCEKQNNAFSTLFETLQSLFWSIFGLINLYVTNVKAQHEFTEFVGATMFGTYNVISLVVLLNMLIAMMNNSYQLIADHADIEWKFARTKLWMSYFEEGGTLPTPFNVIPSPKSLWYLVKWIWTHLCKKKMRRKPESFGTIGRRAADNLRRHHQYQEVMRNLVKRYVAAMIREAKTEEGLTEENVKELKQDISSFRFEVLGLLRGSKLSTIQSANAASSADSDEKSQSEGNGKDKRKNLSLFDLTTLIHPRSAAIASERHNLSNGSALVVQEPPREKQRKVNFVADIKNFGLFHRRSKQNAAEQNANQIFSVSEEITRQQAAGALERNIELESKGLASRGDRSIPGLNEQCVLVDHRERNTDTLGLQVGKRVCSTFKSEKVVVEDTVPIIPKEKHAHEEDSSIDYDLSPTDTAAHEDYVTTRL

[14] = target: Beta-2 adrenergic receptor (Homo sapiens, UniProt P07550); test: beta2AR agonists driving receptor internalization, dose response, cell-based, FAP fluorogen, flow cytometry, cherry pick 1 (AID 588763); type: functional

## Nc1nnc(SCc2nc(O)c3c(-c4ccccc4)csc3n2)s1
[1]
  IC50: 28.9 µM (active)
Major prion protein
  IC50: 12.2 µM (inactive)
[2]
  IC50: > 100 µM (inactive)
cells
  IC50: > 138 µM (inactive)
Prothrombin
  IC50: 30.8 µM (active)

## COc1ccccc1N1N=C(c2cccs2)CC1c1ccccc1 (centres undefined)
Beta Lactamase
  IC50: 3.62 µM (active)
CHO
  IC50: > 49.7 µM (inactive)

## COc1ccc(NCc2cc3cc(OC)ccc3nc2O)cc1
H9c2
  IC50: > 79 µM (inactive)
[3]
  IC50: 89.3 µM (active)
[4]
  IC50: 62.5 µM (active)

## CCc1ccc(-c2nc(/C=C/c3ccccc3)no2)cc1
Caspase-3
  IC50: 80 µM (active)
[5]
  IC50: > 99 µM (inactive)
[6]
  IC50: 46.5 µM (active)
[7]
  IC50: > 99 µM (inactive)

## N#Cc1ccc(C(=O)N2CCN(c3ccccn3)CC2)cc1
Candida albicans [8]
  AC50: 128 µM (active)
Candida albicans [9]
  AC50: 2.66 µM (active)

## Fc1ccc(OCCSc2nc3cccnc3[nH]2)cc1
[10]
  IC50: > 99 µM (inactive)
[11]
  IC50: > 99 µM (inactive)

## O=S(=O)(Nc1ccc2c(c1)C(=NO)c1ccccc1-2)c1cccc(F)c1
Aurora kinase B
  Ki: 0.00631 µM (active)
[12]
  Ki: 3.98 µM (active)
Aurora kinase A
  Ki: 0.501 µM (active)

## Brc1ccc2ncnc(NCc3ccccc3)c2c1
HEK293
  AC50: 5.03 µM (active)

## Oc1ccccc1Nc1nc(NCc2ccco2)c2ccccc2n1
[13]
  EC50: 2.11 µM (active)
[14]
  EC50: 0.492 µM (active)
